Results taken from patent US8637321B2, “Lipidomics approaches for central nervous system disorders” (priority 2005, dated 2014).

What was measured:
[1] = tested on: patients with schizophrenia; test: plasma lipid profiling pre- and post-treatment with antipsychotics; assay type: in vivo, human; on CE18:3n3 I/D: key: I: increase; D: decrease; on DG18:3n6 I/D: key: I: increase; D: decrease; on FA.SFA I/D: key: I: increase; D: decrease; on FA16:0 I/D: key: I: increase; D: decrease; on FA18:0 I/D: key: I: increase; D: decrease; on FA20:4n6 I/D: key: I: increase; D: decrease; on FA20:5n3 I/D: key: I: increase; D: decrease; on FA24:0 I/D: key: I: increase; D: decrease; on LY.n9 I/D: key: I: increase; D: decrease; on LY18:0 I/D: key: I: increase; D: decrease; on LY18:1n9 I/D: key: I: increase; D: decrease; on LY18:3n6 I/D: key: I: increase; D: decrease; on LY20:1n9 I/D: key: I: increase; D: decrease; on LY20:2n6 I/D: key: I: increase; D: decrease; on LY20:3n9 I/D: key: I: increase; D: decrease; on LY20:4n3 I/D: key: I: increase; D: decrease; on LYLC I/D: key: I: increase; D: decrease; on PC.n9 I/D: key: I: increase; D: decrease; on PC14:0 I/D: key: I: increase; D: decrease; on PC16:1n7 I/D: key: I: increase; D: decrease; on PC18:0 I/D: key: I: increase; D: decrease; on PC18:1n9 I/D: key: I: increase; D: decrease; on PC18:3n3 I/D: key: I: increase; D: decrease; on PC18:3n6 I/D: key: I: increase; D: decrease; on PC20:2n6 I/D: key: I: increase; D: decrease; on PC20:3n9 I/D: key: I: increase; D: decrease; on PC20:4n3 I/D: key: I: increase; D: decrease; on PC20:5n3 I/D: key: I: increase; D: decrease; on PCLC I/D: key: I: increase; D: decrease; on PE.n9 I/D: key: I: increase; D: decrease; on PE18:1n9 I/D: key: I: increase; D: decrease; on PELC I/D: key: I: increase; D: decrease; on TG14:0 I/D: key: I: increase; D: decrease; on TG14:1n5 I/D: key: I: increase; D: decrease; on TG18:0 I/D: key: I: increase; D: decrease; on TG18:3n6 I/D: key: I: increase; D: decrease; on TG20:0 I/D: key: I: increase; D: decrease; on TG20:3n6 I/D: key: I: increase; D: decrease; on TG20:4n3 I/D: key: I: increase; D: decrease; on TG20:5n3 I/D: key: I: increase; D: decrease
Description: (§1) Fifty male and female patients were recruited in two studies for metabolic profiling (Table VI and Table VII for demographics). Subjects ranged in age from 18 to 60 years and met the following inclusion criteria: a) DSM-IV criteria for schizophrenia, schizophreniform disorder, or schizoaffective disorder; b) newly hospitalized for a psychotic exacerbation in the setting of no antipsychotic treatment for at least 3 weeks prior to admission; and c) provided signed informed consent. Patients with psychoses due to psychoactive substance abuse or an underlying medical condition were excluded. Patients who were receiving treatment for diabetes mellitus or hyperlipidemia were also excluded.
The choice and dose of antipsychotic medication was based on the doctor's judgment. […] The treatment duration was 2-3 weeks. […] The mean duration of therapy was about 2 weeks for all 3 drugs in Study II. The drug groups were otherwise generally similar in severity of disease and physical characteristics (Table VI and Table VII). The 2-3 week duration permits the study of acute early effects.
All blood samples were drawn from subjects in the early morning after overnight fasting. Blood was drawn into vacutainer tubes containing sodium heparin, immediately placed on ice, and within 10 minutes, the blood was centrifuged and the plasma was transferred into polypropylene tubes and stored in a −30° C. freezer. All baseline samples were drawn prior to starting antipsychotic treatment in the study. If a patient had received a dose of an antipsychotic during the referral process (e.g., because of agitation when initially seen in a local emergency department), drawing of baseline plasma samples was delayed for 2-3 days. Follow-up samples were drawn after patients had received an average of 2-3 weeks of acute antipsychotic treatment.
A comprehensive assessment of plasma lipid profiles was performed (Lipomics Technologies, West Sacramento, Calif.) according to established methods (Watkins, et al. (2002) J. Lipid Res. 43(11):1809-17). Quantitative measurements of fatty acids in various lipid classes were determined as nmol fatty acid/gram of plasma. Lipid classes included cholesterol esters (CE), free cholesterol (FC), triacylglycerols (TG), diacylglycerols (DG), free fatty acids (FA), lysophosphatidylcholine (LY), phosphatidylcholine (PC), and phosphatidylethanolamine (PE). Lipid metabolites are identified by the lipid class and the fatty acid moiety. In the context of this invention, fatty acids are identified first by the number of carbons in the molecule (e.g., 20), the number of double bonds in the molecule (e.g., 4), and lastly the position of the double bonds (e.g., n6). To illustrate, PC20:4n6 denotes a phosphatidylcholine molecule containing a 20 carbon fatty acid with 4 double bonds at the n6 position.
Significant differences between pre- and post-drug treatment were assessed by paired t-tests. Evaluation of response to drug was assessed by two-way ANOVA. All statistics were done using R with the following functions: t.test, anova, prcomp, and g/m (Team RDC (2005) R: A language and environment for statistical computing. R Foundation for Statistical Computing). Before beginning statistical analyses, change detection was used to determine if observed signals were greater than that which could be expected by chance (noise). The chance distribution of p-values was determined by permuting the outcome groupings (Golub, et al. (1999) Science 286(5439):531-7). Briefly, P values for the appropriate comparison were calculated for each metabolite using a Student's t-test. The metabolites were ranked by p value from smallest to largest. The log of the rank versus the log of the p value for each comparison of interest was plotted and is represented by a colored line. The distribution of p values expected by chance at each rank is indicated by the shaded area. […]

[2] = tested on: patients with schizophrenia; test: Clinical Global Impressions (CGI) Scale psychopathology assessment; assay type: in vivo, human; settings: means and standard error; for CGI Affective, Post / CGI Negative, Post / CGI Positive, Post: CGI Scale 1 to 7, higher scores greater severity; for CGI Change, Post: overall global change rating at follow-up (1-2 responders, 3-6 non-responders)
Description: as §1
The choice and dose of antipsychotic medication was based on the doctor's judgment. […] The treatment duration was 2-3 weeks. […] The 2-3 week duration permits the study of acute early effects.
Psychopathology was assessed on the Clinical Global Impressions (CGI) Scale at baseline and at the time of follow-up blood draws. Scores for the CGI Scale can range from 1 to 7, with higher scores indicating greater severity of illness (Guy (1975) ECDEU Assessment Manual for Psychopharmacology: Publication ADM 76-338. Washington, D.C.: US Department of Health, Education, and Welfare). An overall global change rating was also made at the time of the follow-up blood draw.

[3] = tested on: fatty acid elongation and desaturation (delta 5 desaturase, delta 6 desaturase, elongase); test: pathway analysis: lipid synthesis enzyme activities estimated from fatty acid ratios; assay type: in vivo, human
Procedure: Estimates of lipid synthesis enzyme activities were calculated using the precursor to product ratios for each enzyme. The following ratios were used: 18:3n6/18:2n6 for delta 6 desaturase; 20:3n6/18:3n6 for delta 6 elongase; 20:4n6/20:3n6 for delta 5 desaturase; 22:4n6/20:4n6 for elongase; 24:4n6/22:4n6 for elongase; 24:5n6/24:4n6 for delta 6 desaturase. The absolute numbers for each fatty acid metabolite were used for calculating metabolite changes.
To characterize fatty acid elongation and desaturation processes that might be modified in schizophrenia, various ratios of products to substrates in different fatty acid pathways were determined and are summarized in Table VIII.

[4] = cited from earlier work
[5] = Study I, plasma, post-treatment vs pre-treatment
[6] = Study II, plasma, post-treatment vs pre-treatment
[7] = plasma, mole percentage data, post treatment compared with pretreatment
[8] = plasma, total lipid class data (nmol/g sample), post treatment compared with pretreatment
[9] = Study I, after 2-3 weeks treatment
[10] = Study II, about 2 weeks treatment

SMILES: Cc1nc2n(c(=O)c1CCN1CCC(c3noc4cc(F)ccc34)CC1)CCCC2 [Risperidone, risperidone]
- concentration of arachidonic acid, AA (20:4n6) ([1]; Study I, plasma lipid classes, post-treatment vs pre-treatment): not significantly altered
- CE concentration [1, 5]: trend toward an increase
- DG concentration [1, 5]: trend toward an increase
- FA (free fatty acid) class concentration [1, 5]: decrease
- LY class concentration [1, 5]: increase
- PC class concentration [1, 5]: increased
- PE class concentration [1, 5]: increased
- TG concentration [1, 5]: trend toward an increase
- concentration of linoleic acid (18:2n6) and its immediate metabolic products 18:3n6 and 20:3n6 [1, 5]: increased
- concentration of saturated fatty acids in PE, PC and LY [1, 5]: increased
- concentration of total n6 and n3 fatty acids in PE, PC and LY [1, 5]: increased
- n7 and n9 free fatty acids [1, 5]: decreases
- DG concentration [1, 6]: significantly increased
- PC18:3n6 concentration [1, 6]: increased
- PC20:2n6 concentration [1, 6]: increased
- PC20:3n6 concentration [1, 6]: increased
- PC concentration [1, 6]: increased
- PE concentration [1, 6]: increased
- TG concentration [1, 6]: significantly increased
- concentration of PC20:4n6 (arachidonic acid) [1, 6]: did not change
- reduction in 18:0 in patients with schizophrenia ([1]; after treatment, FIG. 1): essentially reversed
- triacylglycerol and phospholipid content of the plasma ([1]; following treatment): increased
- fatty acid synthesis ([1]; inferred from 16:1n7, 18:1n7 and 18:1n9 concentrations): less evident
- CE18:3n3 I/D [1, 7]: I
- DG18:3n6 I/D [1, 7]: I
- FA16:0 I/D [1, 7]: I
- FA18:0 I/D [1, 7]: I
- FA20:4n6 I/D [1, 7]: I
- FA20:5n3 I/D [1, 7]: I
- FA24:0 I/D [1, 7]: I
- FA.SFA I/D [1, 7]: I
- LY18:0 I/D [1, 7]: I
- LY18:1n9 I/D [1, 7]: I
- LY18:3n6 I/D [1, 7]: I
- LY20:1n9 I/D [1, 7]: I
- LY20:2n6 I/D [1, 7]: I
- LY20:3n9 I/D [1, 7]: I
- LY20:4n3 I/D [1, 7]: I
- LY.n9 I/D [1, 7]: I
- PC14:0 I/D [1, 7]: I
- PC16:1n7 I/D [1, 7]: I
- PC18:0 I/D [1, 7]: I
- PC18:1n9 I/D [1, 7]: I
- PC18:3n3 I/D [1, 7]: I
- PC18:3n6 I/D [1, 7]: I
- PC20:2n6 I/D [1, 7]: I
- PC20:3n9 I/D [1, 7]: I
- PC20:4n3 I/D [1, 7]: I
- PC20:5n3 I/D [1, 7]: I
- PC.n9 I/D [1, 7]: I
- PE18:1n9 I/D [1, 7]: I
- PE.n9 I/D [1, 7]: I
- TG14:0 I/D [1, 7]: I
- TG14:1n5 I/D [1, 7]: I
- TG18:0 I/D [1, 7]: I
- TG18:3n6 I/D [1, 7]: I
- TG20:0 I/D [1, 7]: I
- TG20:3n6 I/D [1, 7]: I
- TG20:4n3 I/D [1, 7]: I
- TG20:5n3 I/D [1, 7]: I
- LYLC I/D [1, 8]: I
- PCLC I/D [1, 8]: I
- PELC I/D [1, 8]: I
- levels of arachidonic and docosahexaenoic acids (20:4n6 and 22:6n3) ([1]; present studies, after treatment): remained essentially the same
- CGI Affective, Post [2, 9]: 1.7 ± 0.3
- CGI Negative, Post [2, 9]: 2 ± 0.4
- CGI Positive, Post [2, 9]: 2.6 ± 0.2
- CGI Change, Post ([2]; Study I): 2.9 ± 0.3
- CGI Affective, Post [2, 10]: 1.2 ± 0.2
- CGI Negative, Post [2, 10]: 1.4 ± 0.2
- CGI Positive, Post [2, 10]: 3 ± 0.3
- CGI Change, Post ([2]; Study II): 3 ± 0.3
- apparent delta 5 desaturase activity ([3]; estimated from 20:4n6/20:3n6 in phosphatidylcholine, FIGS. 5A and 5B): decreased
- alterations of fatty acid ratios in patients with schizophrenia ([3]; following treatment): essentially reversed toward normal ranges
- effect on serum lipids ([4]; in vivo): discrepant data
- weight gain, mean increases during the first year of therapy ([4]; prospective data): 4.4-5.1 lbs
